In patent US9598441B2, “Therapeutic compounds and methods” (Wayne State University, priority 2011, dated 2017):

Columns and labels:
[1] = system: MDA-MB-468 wild-type, vector and CARP-1 (Δ896-978) expressing cells; assay: MTT assay in stable HBC sublines expressing vector or CARP-1 (Δ896-978); assay type: cell-based, human; conditions: for growth of wild-type, vector and CARP-1 (Δ896-978) expressing cells (MTT): 0.1 and 1.0 μg/ml ADR, or 5 and 10 μM CFM-4; for sensitivity of CARP-1 (Δ896-978) expressing cells to inhibition: versus wild-type or vector cells
Excerpt: Routine maintenance and culture of MDA-MB-231, MDA-MB-468, SKBR-3 (all lack ER and have mutant p53), MCF-7, T47D (both have ER and wild-type p53) HBC cells (Runnebaum, I. B., Nagarajan, M., Bowman, M., Soto, D., and Sukumar, S. (1991). Proc. Natl. Acad. Sci. USA 88, 10657-10661), human prostate cancer PC3 and LnCAP cells, HCT-116 human colon cancer, human pancreatic cancer PANC-1 and BxPC-3, Burkett lymphoma Raji, diffuse large B-cell lymphoma WSU-DLCL2, follicular lymphoma WSU-FSCCL cells, cervical cancer HeLa, human mesothelial Met5a, human pleural malignant mesothelioma (MPM), murine MPM AB12 cells (Wang, Y., Rishi, A. K., Puliyappadamba, V. T., Sharma, S., Yang, H., Tarca, A., Dou, Q. P., Lonardo, F., Ruckdeschel, J. C., Pass, H. I., Wali, A. (2010) Can. Chemother. Pharmacol. 66, 455-466), and the green monkey kidney Cos-7 cells was carried out essentially as described (Rishi, A. K., Zhang, L., Boyanapalli, M., Wali, A., Mohammad, R. M., Yu, Y., Fontana, J. A., Hatfield, J. S., Dawson, M. I., Majumdar, A. P. N., and Reichert, U. (2003) J. Biol. Chem. 278, 33422-33435, Rishi, A. K., Zhang, L., Yu, Y., Jiang, Y., Nautiyal, J., Wali, A., Fontana, J. A., Levi, E., and Majumdar, A. P. N. (2006) J. Biol. Chem. 281(19), 13188-98, Zhang, L., Levi, E., Majumder, P., Yu, Y., Aboukameel, A., Du, J., Xu, H., Mohammad, R. M., Hatfield, J. S., Wali, A., Adsay, V., Majumdar, A. P. N., and Rishi, A. K. (2007) Mol. Cancer Ther. 6(5), 1661-1672, Levi, L., Zhang, L., Aboukameel, A., Rishi, S., Mohammad, R. M., Polin, L., Hatfield, J. S., and Rishi, A. K. Can. Chemother. Pharmacol. (in Press). The immortalized, non-tumorigenic human breast epithelial MCF-10A have been described before (Miller, F. R. (2000). J. Mammary Gland Biol. Neoplasia 5, 379-391). MCF-7 cells that are resistant to adriamycin (MCF-7/Adr/Vp) or tamoxifen (MCF-7-TAM) were obtained from Drs. Douglas Ross (University of Maryland Baltimore) and Kaladhar Reddy (Pathology Department, Wayne State University, Detroit, Mich.), respectively, and were maintained essentially following methods described before (Doyle, L. A., Yang, W., Abruzzo, L. V., Krogmann, T., Gao, Y., Rishi, A. K., and Ross, D. D. (1998). Proc. Natl. Acad. Sci. (USA), 95, 15665-15670, Nabha, S., Glaros, S., Hong, M., Lykkesfeidt, A. E., Schiff, R., Osborne, C. K., Reddy, K. B. (2005). Oncogene, 24, 3166-3176). The stable sublines were generated by transfecting the MDA-MB-468 cells with the vector or the recombinant pcDNA3/CARP-1 (Δ896-978)-myc-His plasmid followed by selection in the presence of 800 μg/ml neomycin using described methods (Rishi, A. K., Zhang, L., Boyanapalli, M., Wali, A., Mohammad, R M, Yu, Y., Fontana, J. A., Hatfield, J. S., Dawson, M. I., Majumdar, A. P. N., and Reichert, U. (2003) J. Biol. Chem. 278, 33422-33435).
Logarithmically growing cells were either untreated or treated with different agents for various time periods. The cells were lysed to prepare protein extracts. IP was carried out by incubating approximately 1 mg of the protein lysate with appropriate antibodies, and the immunoprecipitates or cell lysates were then electrophoresed on 9-12% SDS-polyacrylamide gels, and transferred to nitrocellulose membranes. The membranes were subsequently probed with various antibodies to determine expression/presence of the corresponding proteins. The cell growth inhibition was assessed by using MTT assay. […]

[2] = system: drug (ADR or TAM)-resistant MCF-7 HBC cells; assay: MTT cell viability assay, drug-resistant cells; assay type: cell-based, human
Excerpt: Routine maintenance and culture of MDA-MB-231, MDA-MB-468, SKBR-3 (all lack ER and have mutant p53), MCF-7, T47D (both have ER and wild-type p53) HBC cells (Runnebaum, I. B., Nagarajan, M., Bowman, M., Soto, D., and Sukumar, S. (1991). Proc. Natl. Acad. Sci. USA 88, 10657-10661), human prostate cancer PC3 and LnCAP cells, HCT-116 human colon cancer, human pancreatic cancer PANC-1 and BxPC-3, Burkett lymphoma Raji, diffuse large B-cell lymphoma WSU-DLCL2, follicular lymphoma WSU-FSCCL cells, cervical cancer HeLa, human mesothelial Met5a, human pleural malignant mesothelioma (MPM), murine MPM AB12 cells (Wang, Y., Rishi, A. K., Puliyappadamba, V. T., Sharma, S., Yang, H., Tarca, A., Dou, Q. P., Lonardo, F., Ruckdeschel, J. C., Pass, H. I., Wali, A. (2010) Can. Chemother. […]
Logarithmically growing cells were either untreated or treated with different agents for various time periods. […] The cell growth inhibition was assessed by using MTT assay. […]

[3] = system: caspase-3, caspase-8, caspase-9, caspase-2; assay: ApoAlert Caspase profiling plate, fluorescence-based; assay type: cell-based
Description: For apoptosis ELISA assay, 4−5×10^2 cells were seeded in 96-well plates and treated essentially as indicated in the MTT assay above. Untreated as well as treated cells were lysed, and levels of mono and oligo-nucleosomal DNA fragments in the lysates were determined by measuring optical density of each sample at 405 nm and 495 nm wavelengths. […] For TUNEL labeling, the cells were treated with various agents, fixed, labeled and photographed essentially as detailed in immuno-localization protocols described before (Zhang, L., Levi, E., Majumder, P., Yu, Y., Aboukameel, A., Du, J., Xu, H., Mohammad, R. M., Hatfield, J. S., Wali, A., Adsay, V., Majumdar, A. P. N., and Rishi, A. K. (2007) Mol. Cancer. Ther. 6(5), 1661-1672). […] Cell lysates derived from vehicle DMSO (Control) or CFM-4-treated cells were added to the wells that had immobilized fluorogenic caspase-3, caspase-8, caspase-9, or caspase-2 substrates. The fluorescence released from the activated caspase-dependent cleavage of respective substrate was detected by a plate reader at the excitation and emission wavelengths of 380 nm and 460 nm, respectively.

| activation of caspases (fluorescence-based quantitative assay) [3] | Structure (SMILES) | growth of wild-type, vector and CARP-1 (Δ896-978) expressing cells (MTT) [1] | sensitivity of CARP-1 (Δ896-978) expressing cells to inhibition [1] | proliferation of drug-resistant MCF-7 cells (MTT) [2] | loss of viability of CARP-1 (Δ896-978) cells versus wild-type or vector-transfected cells ([1]; 10 μM dose) |
| --- | --- | --- | --- | --- | --- |
| – | COc1cccc2c1C(=O)c1c(O)c3c(c(O)c1C2=O)C[C@@](O)(C(=O)CO)C[C@@H]3O[C@H]1C[C@H](N)[C@H](O)[C@H](C)O1 [ADR, adriamycin, reference compound] | suppressed growth | generally more sensitive | – | – |
| activation of caspases 3, 8, 9, and 2 | O=C1N(Cc2ccccc2Cl)c2ccccc2C12NN=C(c1ccccc1)S2 (stereo not shown) [CFM-4, 1-(2-chlorobenzyl)-5′-phenyl-3′H-spiro[indoline-3,2′-[1,3,4]thiadiazol]-2-one] | suppressed growth | generally more sensitive | inhibited proliferation | greater loss of viability |
